The structures appear in SMILES notation. ≈ marks a conversion by molar mass, not a printed value. Read-outs that look alike come from different tables or passages of the source.

The values that follow come from publication PMC8635623, “A click chemistry approach to pleuromutilin derivatives, evaluation of anti-MRSA activity and elucidation of binding mode by surface plasmon resonance and molecular docking” (Journal of Enzyme Inhibition and Medicinal Chemistry, 2021).

In one assay the test system is S. aureus 144. In words: MIC/MBC by broth micro dilution. The format is cell-based. As to conditions: Staphylococcus aureus, S. aureus 144 (clinical strain). Summed up: (§1)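 CLSI broth microdilution in Mueller-Hinton broth, 0.016–32 µg/mL final, triplicates, 24 h at 37 °C. MBC: clear wells plated on MH agar, lowest concentration giving 99.9% reduction in viable counts.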

The test system of the next assay is S. aureus ATCC 29213. Put plainly: MIC/MBC by broth micro dilution. The format is cell-based. Conditions: Staphylococcus aureus. Summed up: as §1
A further assay relates to S. aureus AD3. Put plainly: MIC/MBC by broth micro dilution. The format is cell-based. Conditions: Staphylococcus aureus, S. aureus AD3 (clinical strain). Summed up:
as §1

In assay [1] the test system is MRSA ATCC 43300. Put plainly: MIC/MBC by broth micro dilution. As to conditions: for MIC: 37 °C, 24 h. The format is cell-based, methicillin-resistant S. aureus. Summed up: as §1
The test system of assay [2] is MRSA ATCC 43300. In words: Constant concentration time-kill curves. The format is cell-based, methicillin-resistant S. aureus. The procedure:
The time-kill kinetic approach was used to investigate the anti-MRSA activity of compounds 50, 62 and 64. The experimental results were presented in graphic form in Figure 2. Compared with growth control, compounds 50 and 62 inhibited the reproduction of bacteria to a certain extent.
The time-kill curve determination is an in vitro bactericidal kinetics model, which is used to study the sustained killing effect of bacteria within 24 h at a certain drug concentration. The bactericidal activity of compounds 50, 62 and 64 was determined by the time-kill curve as reported in our previous work[18]^,[22]. MRSA grown in MH broth were diluted to approximately 1 × 10^6 CFU/mL. […] 100 µL of samples were collected from the subculture inoculums before culture (0 h) and 3 h, 6 h, 9 h and 24 h after culture, and serially diluted 10-flod with sterile saline. The dilution of each gradient (25 µL) was uniformly suspended on the MH agar plates. The total bacterial CFU/mL on the plates were counted to calculate the bacterial colonies after up to 20 h of incubation at 37 °C. The results are represented by Mean ± SD, with the log10 CFU/mL of bacteria counts as the ordinate and time as the abscissa, the time-kill curves of different concentrations of compounds against MRSA were established respectively.

Another assay has as its target 50S ribosome. Put plainly: SPR binding studies. As to conditions: 4 °C. Also noted: species or system S. aureus. The procedure: In order to gain some insight into the binding mode of the potent inhibitors, SPR experiments were performed. […] The response unit (RU) of surface resonance was compared to determine the different binding affinities between each compound and the 50S ribosome. The association rate constants (Ka) and dissociation rate constant (Kd) represent the rate of association and dissociation in the binding reaction, respectively. The equilibrium dissociation constant (KD) indicated the degree of dissociation of compounds and the 50S ribosome in the equilibrium state. Their binding curves during the experiment were shown in Figure 3, as well as the concentration gradient curves were shown in Figure SI 27–34.
SPR biosensing experiments were performed at 4 °C using the bScreen LB 991 Label-free Microarray System (Berthold Technologies, Germany) and the photo-cross-linker sensor chip. The BIODOT™ AD-1520 Array Printer (BIODOT Inc., USA) was used for printing samples and control on the chip surface. A UV Spectroirradiator 1020 (Amersham Life Science, USA) was used for the photo-cross-linking reaction quickly after the array print.
As described in the reference[32–34] with minor modifications, the ribosome of S. aureus were extracted and purified to obtain 50S ribosome. MRSA (ATCC 43300) was incubated overnight at 37 °C. The bacteria solution was inoculated into a new culture solution, and cells were collected at an OD600 = 1.5. The bacterial culture was centrifuged 3 times at 3,500 rpm using a TX-400 rotor at 4 °C for 30 min, and then the supernatant was discarded. Cells were washed twice with 10 mM Tris-HCl (pH = 7.5), and suspend the precipitate with buffer A (20 mM HEPES-HCl pH = 7.5, 100 mM NH4Cl, 21 mM Mg(OAc)2, 1 mM EDTA, 1 mM DTT). Cells were lysed by repeated (>3×) snap-freezing and thawing, then ultrasonic disintegration was performed. To remove cell debris, the crushed product was centrifuged at 20,000 rpm for 90 min at 4 °C.The lysate layered on 15 ml of a sucrose cushion (10 mM HEPES-HCl pH = 7.5, 500 mM KCl, 25 mM Mg(OAc)2, 1.1 M sucrose, 0.5 mM EDTA, 1 mM DTT) and centrifuged in the ultracentrifuge(Optima^TM TL 100) at 45,000 rpm using a type70Ti rotor at 4 °C for 15 h to obtain ribosomal particles. Pellet was resuspended in 3 ml of buffer E (10 mM HEPES-HCl pH = 7.5, 100 mM KCl, 1 mM Mg(OAc)2, 0.5 mM EDTA, 1 mM DTT), then layered on 9 ml of 7–30% sucrose gradient and ultracentrifuged at 17,100 rpm using a typeSW40Ti rotor at 4 °C for 15 h. The gradient was analysed on the AKTA explorer system. The fractions corresponding to 50S ribosome were collected and PEG 20000 was added to a final concentration of 4.5% w/v. Ribosomes were pelleted by centrifugation at 20,000 rpm for 12 min, the pellet was gently dissolved in 200 µL of storage buffer (10 mM HEPES-HCl pH = 7.5, 15 mM KCl, 60 mM NH4Cl, 10 mM Mg(OAc)2, 1 mM DTT) and then flash-frozen for storage at −80 °C.
Dilute these compounds to a concentration of 10 mM with DMSO as the stationary phase printing working solution. After that, the printing working solution was printed on the sensor chip by the array printer, and each sample was printed four times repeatedly. Four groups of positive control dots (12 rapamycin dots, 3 in each corner) were printed on the four corners of the sensor chip respectively. The sample dots were dried in vacuum, and the sensor chip was quickly transferred to the UV spectroirradiator for a photo-cross-linking reaction. Subsequently, the sensor chip was washed with DMF, methanol, and water for 15 min in turn, followed by blowing dry under nitrogen, and then assembled with Flowcell Cover.
The binding studies were performed with PBST running buffer (pH = 7.4, 0.1% Tween 20) at a constant flow rate of 0.5 µL/s in instrument. 50S Ribosome was diluted separately with PBST running buffer to 200 nM, 400 nM, 800 nM, 1600 nM and 3200 nM and injected consecutively for 600 s at associating stage, followed by running buffer for 360 s at each dissociating stage. […]

Where [3] appears, read: lowest concentration reducing viable counts by 99.9%.
[4] abbreviates: PBST pH 7.4, compound immobilised, 50S ribosome 200-3200 nM.

The term MIC denotes the lowest concentration that inhibits growth of the organism. One may read the MBC as the smallest concentration meeting the test's criterion for killing. As usually defined, the Kd is the equilibrium constant for the complex coming apart. As to `C=C[C@]1(C)C[C@@H](OC(=O)Cn2cc(CN3CCN(c4ccc([N+](=O)[O-])cc4)CC3)nn2)[C@]2(C)[C@H](C)CC[C@]3(CCC(=O)[C@H]32)[C@@H](C)[C@@H]1O` [Compound 64, 22-(2-(4-(4-(4-Nitrophenyl)-piperazin-1-yl)-methyl)-1H-1,2,3-triazol-1-yl)-22-deoxy pleuromutilin], the MIC with S. aureus 144 (37 °C, 24 h) was found to be 2 µg/mL (≈ 3.08 µM); in the assay on S. aureus ATCC 29213 (ATCC29213, 37 °C, 24 h) it was 1 µg/mL (≈ 1.54 µM); in the assay with S. aureus AD3 (37 °C, 24 h), 1 µg/mL (≈ 1.54 µM); with MRSA ATCC 43300 [1], 0.5 µg/mL (≈ 0.771 µM); with MRSA ATCC 43300 [1] (Staphylococcus aureus, read-out: MIC) it was 0.5 µg/mL (≈ 0.771 µM). Also, the MBC in the assay with S. aureus 144 (setting [3]) is 4 µg/mL (≈ 6.17 µM); with S. aureus ATCC 29213 (ATCC29213, lowest concentration reducing viable counts by 99.9%), 2 µg/mL (≈ 3.08 µM); against S. aureus AD3 (setting [3]) it was 4 µg/mL (≈ 6.17 µM); in the assay on MRSA ATCC 43300 [1] (Staphylococcus aureus, lowest concentration reducing viable counts by 99.9%), 1 µg/mL (≈ 1.54 µM). For the same compound, in the assay on MRSA ATCC 43300 [2] (16 × MIC, after 3 h incubation), the “MRSA killing, log10 CFU/mL reduction” value is on record as 2.21 log10 CFU/mL. Further, the “bacterial growth inhibition, log10 CFU/mL reduction” value in the assay on MRSA ATCC 43300 [2] (16 × MIC, at 24 h) amounted to 4.49 log10 CFU/mL. The “concentration giving a bactericidal effect” value in the assay on MRSA ATCC 43300 [2] (time-kill, MRSA) is “higher than 4 × MIC”. Further, the dissociation constant Kd at 50S ribosome (PBST pH 7.4, KD = Kd/Ka, read-out: KD (equilibrium dissociation constant)) was 0.636 µM. Further, in the assay on 50S ribosome (setting [4]), the “Ka (association rate constant)” value worked out at 1200 M⁻¹ s⁻¹. Further, the “Kd (dissociation rate constant)” value in the assay on 50S ribosome (setting [4]) turned out to be 0.000764 s⁻¹.
